# Experimental data reported in patent US8202902B2, “Bivalent SMAC mimetics and the uses thereof” (The Regents of the University of Michigan, priority 2006, dated 2012).
# Residues, ends and D or L forms follow the SMILES beside them. *: point of attachment. Cbz = O=C(OCc1ccccc1)*; CH2F = FC*
# B1: mature Smac protein: mature Smac protein, endogenous inhibitor of XIAP (protein, UniProt Q9NR28 22-239, looked up)
# Diablo IAP-binding …: LCVPVVANFKKRCFSELIRPWHKTVTIGFGVTLCAVPIAQKSEPHSLSSEALMRRAVSLVTDSTSTFLSQTTYALIEAITEYTKAVYTLTSLYRQYTSLLGKMNSEEEDEVWQVIIGARAEMTSKHQEYLKLETTWMTAVGLSEMAAEAAYQTGADQASITARNHIQLVKLQVEEVHQLSRKAETKLAEAQIEELRQKTQEEGEERAESEQEAYLRED
# Experiments:
# [1] = test system: cIAP-1 in cancer cell lines; test: Induction of cIAP-1 degradation in cancer cells; assay type: cell-based; details: sensitive and resistant cancer cell lines
# [2] = target: T1, Recombinant XIAP containing linker-BIR2-BIR3 (residues 120-356) (Homo sapiens, UniProt P98170); test: Cell-free functional assay: antagonism of XIAP inhibition of caspase-3/-7; assay type: biochemical; details: up to 100 μM
# T1 construct: Recombinant XIAP containing linker-BIR2-BIR3 (residues 120-356)
# T1 sequence (P98170 120-356): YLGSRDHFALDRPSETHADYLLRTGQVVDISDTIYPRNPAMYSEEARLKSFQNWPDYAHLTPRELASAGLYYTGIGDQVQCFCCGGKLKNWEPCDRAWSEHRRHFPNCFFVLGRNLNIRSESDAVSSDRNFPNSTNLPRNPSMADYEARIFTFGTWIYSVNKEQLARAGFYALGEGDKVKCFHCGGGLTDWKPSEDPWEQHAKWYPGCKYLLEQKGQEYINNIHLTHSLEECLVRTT
# [3] = target: T2, human XIAP protein (residues 120-356) (Homo sapiens, UniProt P98170); test: Fluorescence-polarization-based binding assay to XIAP protein (Smac2-F tracer); details: read-out: Binding to XIAP IC50 values
# T2 construct: human XIAP protein (residues 120-356) (10 nM)
# T2 sequence (P98170 120-356): as above
# Protocol: The polarization values were measured after 2 hours incubation, using the Ultra plate reader. […] Curve fitting is performed using GraphPad Prism® software.
# [4] = test system: XIAP, cIAP-1, and cIAP-2 proteins; test: Fluorescence-polarization based binding of control compounds to IAP proteins
# Protocol: Therefore binding affinities of Smac mimetics to cIAP-2 BIR3-only protein were evaluated.
# [5] = test system: MDA-MB-231 and SK-OV-3 cancer cell lines; test: Role of caspase-8, -3 and -9 (siRNA, caspase inhibitors) in activity of Smac mimetics; assay type: cell-based
# Excerpt: To examine the role of caspase-8, -3 and -9 in apoptosis induction by Smac mimetics, siRNA was employed against these caspases in MDA-MB-231 and SK-OV-3 cancer cell lines.
# [6] = test system: MDA-MB-231 (2LMP) breast cancer cells; test: Cell growth inhibition by TRAIL alone or with Smac mimetic, MDA-MB-231 (2LMP); assay type: cell-based, human
# Protocol: (§1) The rate of cell growth inhibition after treatment with different concentrations of the compound was determined using a WST-8 kit (2-(2-methoxy-4-nitrophenyl)-3-(4-nitrophenyl)-5-(2, 4 disulfophenyl)-2H-tetrazolium monosodium salt; Dojindo Molecular Technologies, Inc., Gaithersburg, Md.). WST-8 was added at a final concentration of 10% to each well, and then the plates were incubated at 37° C. for 2-3 hrs. The absorbance of the samples was measured at 450 nm using a ULTRA Tecan Reader (Molecular Device).
# (§2) To test the ability of bivalent Smac mimetics to sensitize cancer cells to the growth inhibiting effects of other agents, cell growth inhibition assays were carried out with various agents alone or in combination with increasing doses of bivalent Smac mimetics.
# [7] = test system: MDA-MB-453 breast cancer cells; test: Cell growth inhibition by TRAIL alone or with Smac mimetic, MDA-MB-453; assay type: cell-based
# Protocol: as §1, §2
# [8] = test system: PC-3 human prostate cancer cells; test: Cell growth inhibition by TRAIL alone or with Smac mimetic, PC-3; assay type: cell-based
# Protocol: as §1, §2
# XIAP = XIAP (Homo sapiens, UniProt P98170); details: cited from earlier work
# Chain of XIAP (P98170 whole entry): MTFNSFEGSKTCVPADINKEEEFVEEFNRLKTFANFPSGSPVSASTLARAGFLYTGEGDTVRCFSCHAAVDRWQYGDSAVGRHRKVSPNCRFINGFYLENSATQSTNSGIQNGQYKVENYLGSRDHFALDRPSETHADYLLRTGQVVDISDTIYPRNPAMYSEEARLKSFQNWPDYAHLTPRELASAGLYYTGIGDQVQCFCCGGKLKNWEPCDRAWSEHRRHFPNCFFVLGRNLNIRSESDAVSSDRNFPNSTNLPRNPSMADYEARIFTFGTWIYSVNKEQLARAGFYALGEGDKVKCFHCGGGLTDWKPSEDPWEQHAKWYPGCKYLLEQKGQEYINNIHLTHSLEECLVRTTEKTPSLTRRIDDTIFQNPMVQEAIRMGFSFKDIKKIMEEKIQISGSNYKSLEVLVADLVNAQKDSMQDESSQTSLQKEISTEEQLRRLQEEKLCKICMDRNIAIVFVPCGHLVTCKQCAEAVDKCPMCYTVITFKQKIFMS
molecule,measurement,setting,value
"CC(C)C[C@@H](C=O)NC(=O)[C@H](CC(C)C)NC(=O)[C@H](CC(C)C)NC(=O)OCc1ccccc1 [MG-132, reference compound] (Cbz-Leu-Leu-Leu-aldehyde)",effect of proteasome inhibitor on cIAP-1 degradation by SM-122 and SM-164,[1],effectively blocked cIAP-1 degradation
CC(=O)NC(Cc1c[nH]c2ccccc12)C(=O)NC1CCCCC2CCC(C(=O)NC(c3ccccc3)c3cn(CCCCc4ccc(CCCCn5cc(C(NC(=O)C6CCC7CCCCC(NC(=O)C(Cc8c[nH]c9ccccc89)NC(C)=O)C(=O)N76)c6ccccc6)nn5)cc4)nn3)N2C1=O (stereo not shown) [SH-173],effect in the functional assay,[2],minimal effect
same,IC50,[3],> 10000 nM
same,less potent than SM-164 to these IAP proteins,[4],1000 times
"COC(=O)CC[C@H](NC(=O)[C@H](CC(=O)OC)NC(=O)OCc1ccccc1)C(=O)N[C@H](C(=O)N[C@@H](CC(=O)OC)C(=O)CF)C(C)C [Z-DEVD-FMK, reference compound]","effect of caspase inhibitor on the activity of both Smac mimetics (SM-164, SM-122)",[5],markedly inhibited
"CC[C@H](C)[C@H](NC(=O)OCc1ccccc1)C(=O)N[C@@H](CCC(=O)OC)C(=O)N[C@H](C(=O)N[C@@H](CC(=O)OC)C(=O)CF)[C@@H](C)O [Z-IETD-FMK, reference compound] (Cbz-IE(OMe)TD(OMe)-CH2F)","effect of caspase inhibitor on the activity of both Smac mimetics (SM-164, SM-122)",[5],markedly inhibited
TRAIL: tumor necrosis factor-related apoptosis-inducing ligand,IC50 of TRAIL alone,[6],0.0022 µg/mL
same,IC50 of TRAIL alone,[7],> 1 µg/mL
same,IC50 of TRAIL alone,[8],> 0.3 µg/mL
B1,Kd,XIAP,420 nM
